From patent US4771071A, “Antihypercholesterolemic compounds” (Merck & Co., Inc., priority 1986, dated 1988)

Experiments:
HMG-CoA reductase = HMG-CoA reductase inhibition assay (in vitro); type: biochemical; settings: IC50 compared with compactin determined simultaneously, compactin assigned 100; tested as sodium salt of dihydroxy acid form; solubilized rat liver microsomal enzyme
Protocol: The intrinsic HMG-CoA reductase inhibition activityof the claimed compounds is measured in the in vitro protocol published in J. Med. Chem., 28, p. 347-358 (1985) and described below:
Male Holtzman Sprague-Dawley rats (225-250 g) were kept on reversed lighting and fed Purina rat chow containing 3% cholestyramine for 7 days preceding their sacrifice by CO2 asphyxiation. Livers were removed 6 hours into the dark cycle and used immediately to prepare microsomes. […]
Test compounds or compactin (after first being converted to the sodium salt of their dihydroxy acid form in situ by addition of 1N NaOH (1 equivalent) were added to the assay system in 10-μL volumes at multiconcentration levels. After a 40-minutes incubation at 37° C. with shaking and exposure to air, the reaction was stopped by the addition of 0.4 mL of 8N HCl. After an additional 30-minute incubation at 37° C. to ensure the complete lactonization of mevalonic acid to mevalonolactone, 0.2 ml of the mixture was added to an 0.5×5.0 cm column containing 100-200 mesh BioRex 5, chloride form (Bio-Rad), wetted with distilled water, as described by Alberts et al., [J. Proc. Natl. Acad. Sci. U.S.A., 1980, 77, 3957]. […] Five milliliters of Aquasol-2 (New England Nuclear) was added to each vial, and radioactivity was measured in a Packard Tri Carb Prias scintillation counter. […]

[1] = Stability of free hydroxy acid on standing; type: physicochemical
Protocol: The sodium salt of the compound II from Example 11 is redissolved in 2 ml of ethanol-water (1:1) and added to 10 ml of 1N hydrochloric acid from which the hydroxy acid is extracted with ethyl acetate. The latter solvent is washed once with water, dried, and removed in vacuo with a bath temperature not exceeding 30° C.

| Compound | Relative Potency (HMG-CoA reductase) | stability of hydroxy acid (reversion to lactone) [1] |
| --- | --- | --- |
| 6(R)-[2-[8(S)-(2,2-Dimethyl-3-methoxycarbonylpropionyloxy)-2(S),6(R)-dimethyl-1,2,6,7,8,8a-(R)-hexahydronaphthyl-1(S)]ethyl]-4(R)-hydroxy-3,4,5,6-tetrahydro-2H-pyran-2-one [Example 2] | 59 |  |
| 6(R)-[2-[8(S)-(2,2-dimethyl-3-methoxy-3-oxopropionyloxy)-2(S),6(R)-dimethyl-1,2,6,7,8,8a(R)-hexahydronaphthyl-1(S)]ethyl]-4(R)-hydroxy-3,4,5,6-tetrahydro-2H-pyran-2-one [Example 1] | 87 |  |
| COC(=O)C(C)(C)C(=O)O[C@H]1C[C@@H](C)C=C2C=C[C@H](C)[C@H](CC[C@@H](O)C[C@@H](O)CC(=O)O)[C@H]21 [Example 13] |  | slowly reverts to the lactone on standing |
